Test results published in patent US9351974B2, “Substituted pteridinones for the treatment of cancer” (OSI Pharmaceuticals, LLC, priority 2011, dated 2016).

molecular target: T1, His-tagged full-length RSK2 (RPS6KA3) (Homo sapiens, UniProt P51812); assay: RSK2 Omnia Assay for compound IC50 determination; type: biochemical; conditions: ATP 15 μM, n=2, read-out: Mean RSK2 Biochem IC50
T1 construct: His-tagged full-length RSK2 (RPS6KA3, Invitrogen PV3323); His; purchased Invitrogen PV3323
Description: RSK1 & RSK2 Omnia Assay Protocol for Compound IC50 Determination
The Omnia Assay (Invitrogen) has been optimized for His-tagged full length RSK1 (RPS6KA1, Millipore 14-509) and for His-tagged full-length RSK2 (RPS6KA3, Invitrogen PV3323). In this assay system, Omnia ST Peptide 6 (Invitrogen KNZ1061) functions as a substrate for RSK1 or RSK2. Phosphorylation of this SOX-containing peptide results in an increase in fluorescence at 485 nm upon excitation at 360 nm.
Assays are carried out in 384-well OptiPlates (Perkin Elmer 6007290) in a total volume of 20 μL containing RSK1 ([…]) or RSK2 ([…]), Omnia ST Peptide 6 (5 μM), ATP (15 μM, Km=16.3 μM), and test compound (variable) in RSK assay buffer (50 mM HEPES, pH 7.5, 10 mM MgCl2, 0.01% Tween-20, 1% glycerol, 1 mM DTT, 1 mM EGTA, 0.01% BSA) with 1% DMSO.
IC50s for test compounds are typically determined using an 11-point three-fold serial dilution with a final assay concentration ranging either from 170 μM to […] or from 17 μM to […]. All compound concentrations are assayed in duplicate. Initial compound dilutions are prepared at 100× concentration in 100% DMSO from a 10 mM stock solution. Compounds are further diluted 1:25 in assay buffer resulting in a 4× concentrated solution.
To run the assay 5 μL of the above 4× concentrated compound solution (or 4% DMSO for positive controls) is added to the assay plate followed by 5 μL of a solution containing peptide (20 μM) and ATP (60 μM) in assay buffer. The reaction is initiated by the addition of 10 μL of RSK1 ([…]) or RSK2 ([…]) in assay buffer, or assay buffer alone for negative controls. The increase in fluorescence due to peptide phosphorylation is monitored continuously as a function of time using a Spectramax M5 plate reader (Molecular Devices) equipped with SoftMax Pro software.
The slopes from the linear portion of progress curves are used to determine IC50 values by non-linear curve-fitting to a four-parameter equation using GraphPad Prism (GraphPad Software, Inc.) or XLFit (IDBS). IC50's are determined in duplicate (n=2) and Ki values are calculated from IC50 values using the Cheng-Prusoff equation assuming a competitive mode of inhibition.

T1 sequence (P51812 whole entry): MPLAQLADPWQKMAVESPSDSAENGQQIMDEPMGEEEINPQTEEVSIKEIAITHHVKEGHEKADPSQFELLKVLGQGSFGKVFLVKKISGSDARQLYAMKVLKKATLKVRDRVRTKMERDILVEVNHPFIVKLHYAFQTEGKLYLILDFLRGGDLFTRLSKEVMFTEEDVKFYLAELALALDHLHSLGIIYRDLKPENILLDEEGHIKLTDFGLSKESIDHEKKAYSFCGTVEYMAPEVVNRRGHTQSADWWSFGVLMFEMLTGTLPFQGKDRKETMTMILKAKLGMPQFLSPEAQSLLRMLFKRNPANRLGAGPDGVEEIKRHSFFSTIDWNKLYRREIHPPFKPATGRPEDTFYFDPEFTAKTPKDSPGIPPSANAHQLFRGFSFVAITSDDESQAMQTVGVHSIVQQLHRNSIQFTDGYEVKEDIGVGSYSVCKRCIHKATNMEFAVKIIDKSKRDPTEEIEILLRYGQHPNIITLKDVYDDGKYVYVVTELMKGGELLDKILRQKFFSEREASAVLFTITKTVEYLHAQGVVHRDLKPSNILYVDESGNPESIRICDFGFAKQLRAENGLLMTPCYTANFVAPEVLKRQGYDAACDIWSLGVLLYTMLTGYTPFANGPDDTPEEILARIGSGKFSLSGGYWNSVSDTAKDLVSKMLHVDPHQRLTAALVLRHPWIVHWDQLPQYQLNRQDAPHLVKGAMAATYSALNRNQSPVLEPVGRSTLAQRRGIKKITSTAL

SMILES	IC50 [nM]
C[C@@H]1C(=O)N(c2cccc(C#N)c2)c2cnc(Nc3cc(F)c4[nH]ncc4c3)nc2N1c1ccc(F)cc1 [compound 180]	≤ 100
C[C@@H]1C(=O)N(c2cccc(C#N)c2)c2cnc(Nc3cc(F)c4[nH]ncc4c3)nc2N1C1CCCC1 [Example 219, 3-[(7R)-8-cyclopentyl-2-[(7-fluoro-1H-indazol-5-yl)amino]-7-methyl-6-oxo-7,8-dihydropteridin-5(6H)-yl]benzonitrile]	≤ 100
CC[C@@H]1C(=O)N(c2cccc(C#N)c2)c2cnc(Nc3ccc4[nH]nc(F)c4c3)nc2N1C1CCCCC1 [compound 295, 3-[(7R)-8-cyclohexyl-7-ethyl-2-[(3-fluoro-1H-indazol-5-yl)amino]-6-oxo-7,8-dihydropteridin-5(6H)-yl]benzonitrile]	≤ 100
C[C@@H]1C(=O)N(c2cccc(C#N)c2)c2cnc(Nc3ccc(C(=O)O)cc3)nc2N1C1CCCCC1 [compound 155, 4-{[(7R)-5-(3-cyanophenyl)-8-cyclohexyl-7-methyl-6-oxo-5,6,7,8-tetrahydropteridin-2-yl]amino}benzoic acid]	≤ 100
COc1ccc(N2C(=O)[C@@H](C)N(C3CCCCC3)c3nc(Nc4cc(F)c(O)c(F)c4)ncc32)cc1OC [compound 159]	≤ 100
C[C@@H]1C(=O)N(c2cccc(C#N)c2)c2cnc(Nc3cc(F)c4[nH]ncc4c3)nc2N1C1CCCCC1 [compound 106, 3-[(7R)-8-cyclohexyl-2-[(7-fluoro-1H-indazol-5-yl)amino]-7-methyl-6-oxo-7,8-dihydropteridin-5(6H)-yl]benzonitrile]	≤ 100
C[C@@H]1C(=O)N(c2cccc(C#N)c2)c2cnc(Nc3ccc4[nH]ncc4c3F)nc2N1C1CCCC1 [Example 216, 3-[(7R)-8-cyclopentyl-2-[(4-fluoro-1H-indazol-5-yl)amino]-7-methyl-6-oxo-7,8-dihydropteridin-5(6H)-yl]benzonitrile]	≤ 100
C[C@@H]1C(=O)N(c2cccc(C#N)c2)c2cnc(Nc3ccc4[nH]ncc4c3)nc2N1CC1CCCC1 [Example 81, 3-[(7R)-8-(cyclopentylmethyl)-2-(1H-indazol-5-ylamino)-7-methyl-6-oxo-7,8-dihydropteridin-5(6H)-yl]benzonitrile]	≤ 100
COCc1cccc(N2C(=O)[C@@H](C)N(C3CCCCC3)c3nc(Nc4ccc5[nH]ncc5c4)ncc32)c1 [compound 110, (7R)-8-cyclohexyl-2-(1H-indazol-5-ylamino)-5-[3-(methoxymethyl)phenyl]-7-methyl-7,8-dihydropteridin-6(5H)-one]	≤ 100
C[C@@H]1C(=O)N(c2cccc(C#N)c2)c2cnc(Nc3ccc4[nH]ncc4c3)nc2N1C1CCOCC1 [compound 184, 3-[(7R)-2-(1H-indazol-5-ylamino)-7-methyl-6-oxo-8-(tetrahydro-2H-pyran-4-yl)-7,8-dihydropteridin-5(6H)-yl]benzonitrile]	≤ 100
C[C@@H]1C(=O)N(c2ccccc2)c2cnc(Nc3ccc4[nH]ncc4c3)nc2N1CCN(C)C [Example 73, (7R)-8-[2-(dimethylamino)ethyl]-2-(1H-indazol-5-ylamino)-7-methyl-5-phenyl-7,8-dihydropteridin-6(5H)-one]	> 1000
COc1ccc(N2C(=O)[C@@H](C)N(C3CCOCC3)c3nc(Nc4ccc5[nH]c(=O)oc5c4)ncc32)cc1C#N [compound 197, 2-Methoxy-5-[(7R)-7-methyl-6-oxo-2-[(2-oxo-2,3-dihydro-1,3-benzoxazol-6-yl)amino]-8-(tetrahydro-2H-pyran-4-yl)-7,8-dihydropteridin-5(6H)-yl]benzonitrile]	≤ 100
C[C@@H]1C(=O)N(c2ccc(F)c(C#N)c2)c2cnc(Nc3ccc4[nH]ncc4c3)nc2N1C1CCCCC1 [compound 96, 5-[(7R)-8-cyclohexyl-2-(1H-indazol-5-ylamino)-7-methyl-6-oxo-7,8-dihydropteridin-5(6H)-yl]-2-fluorobenzonitrile]	≤ 100
CC1C(=O)N(c2ccccc2)c2cnc(Nc3ccc4[nH]ncc4c3)nc2N1C1CCCC1 (centres unmarked) [Example 64, 8-cyclopentyl-2-(1H-indazol-5-ylamino)-7-methyl-5-phenyl-7,8-dihydropteridin-6(5H)-one]	≤ 100

More lines, now with the values ahead:

IC50 [nM]	SMILES
≤ 100	CC(C)Oc1ccc(N2C(=O)[C@@H](C)N(C3CCC(F)(F)CC3)c3nc(Nc4cc(F)c5[nH]c(=O)oc5c4)ncc32)cc1C#N [compound 278, 5-[(7R)-8-(4,4-difluorocyclohexyl)-2-[(4-fluoro-2-oxo-2,3-dihydro-1,3-benzoxazol-6-yl)amino]-7-methyl-6-oxo-7,8-dihydropteridin-5(6H)-yl]-2-(propan-2-yloxy)benzonitrile]
≤ 100	C[C@@H]1C(=O)N(c2cccc(F)c2)c2cnc(Nc3cc(F)c4[nH]ncc4c3)nc2N1C1CCCCC1 [compound 137, (7R)-8-cyclohexyl-2-[(7-fluoro-1H-indazol-5-yl)amino]-5-(3-fluorophenyl)-7-methyl-7,8-dihydropteridin-6(5H)-one]
≤ 100	C[C@@H]1C(=O)N(c2ccc(N3CCN(C)CC3)nc2)c2cnc(Nc3cc(F)c4[nH]ncc4c3)nc2N1[C@H]1CC[C@H](C)CC1 [compound 242, (7R)-2-[(7-fluoro-1H-indazol-5-yl)amino]-7-methyl-8-(trans-4-methylcyclohexyl)-5-[6-(4-methylpiperazin-1-yl)pyridin-3-yl]-7,8-dihydropteridin-6(5H)-one]
≤ 100	CO[C@H]1CC[C@H](N2c3nc(Nc4cc(F)c(O)c(F)c4)ncc3N(c3cccc(C#N)c3)C(=O)[C@H]2C)CC1 [compound 232, 3-[(7R)-2-[(3,5-difluoro-4-hydroxyphenyl)amino]-8-(trans-4-methoxycyclohexyl)-7-methyl-6-oxo-7,8-dihydropteridin-5(6H)-yl]benzonitrile]
≤ 100	C[C@@H]1C(=O)N(c2cccc(C#N)c2)c2cnc(Nc3cc(F)c(O)c(F)c3)nc2N1[C@H]1CC[C@H](C)CC1 [compound 243, 3-[(7R)-2-[(3,5-difluoro-4-hydroxyphenyl)amino]-7-methyl-8-(trans-4-methylcyclohexyl)-6-oxo-7,8-dihydropteridin-5(6H)-yl]benzonitrile]
≤ 100	C[C@@H]1C(=O)N(c2cccc(C(=O)N(C)C)c2)c2cnc(Nc3ccc4[nH]ncc4c3)nc2N1C1CCCCC1 [Example 32, 3-[(7R)-8-cyclohexyl-2-(1H-indazol-5-ylamino)-7-methyl-6-oxo-7,8-dihydropteridin-5(6H)-yl]-N,N-dimethylbenzamide]
≤ 100	COc1ccc(N2C(=O)[C@@H](C)N([C@H]3CC[C@H](C)CC3)c3nc(Nc4cnc5[nH]ncc5c4)ncc32)cc1C#N [compound 245, 2-Methoxy-5-[(7R)-7-methyl-8-(trans-4-methylcyclohexyl)-6-oxo-2-(1H-pyrazolo[3,4-b]pyridin-5-ylamino)-7,8-dihydropteridin-5(6H)-yl]benzonitrile]
≤ 100	CCOc1ccc(N2C(=O)[C@@H](C)N([C@H]3CC[C@H](C)CC3)c3nc(Nc4ccc5[nH]c(=O)oc5c4)ncc32)cc1C#N [compound 247, 2-Ethoxy-5-[(7R)-7-methyl-8-(trans-4-methylcyclohexyl)-6-oxo-2-[(2-oxo-2,3-dihydro-1,3-benzoxazol-6-yl)amino]-7,8-dihydropteridin-5(6H)-yl]benzonitrile]
≤ 100	Cc1cccc(N2C(=O)[C@@H](C)N(C3CCCCC3)c3nc(Nc4ccc5[nH]ncc5c4)ncc32)c1 [Example 30, (7R)-8-cyclohexyl-2-(1H-indazol-5-ylamino)-7-methyl-5-(3-methylphenyl)-7,8-dihydropteridin-6(5H)-one]
≤ 100	C[C@@H]1C(=O)N(c2cccnc2)c2cnc(Nc3cc(F)c4[nH]ncc4c3)nc2N1C1CCC2(CC1)CC2 [Example 298, (7R)-2-[(7-fluoro-1H-indazol-5-yl)amino]-7-methyl-5-(pyridin-3-yl)-8-(spiro[2.5]oct-6-yl)-7,8-dihydropteridin-6(5H)-one]
≤ 100	C[C@@H]1C(=O)N(c2ccc(N3CCCC3)c(C#N)c2)c2cnc(Nc3cc(F)c4[nH]ncc4c3)nc2N1C1CCC(C)(C)CC1 [Example 212, 5-[(7R)-8-(4,4-dimethylcyclohexyl)-2-[(7-fluoro-1H-indazol-5-yl)amino]-7-methyl-6-oxo-7,8-dihydropteridin-5(6H)-yl]-2-(pyrrolidin-1-yl)benzonitrile]
≤ 100	C[C@@H]1C(=O)N(c2ccc(N(C)C)nc2)c2cnc(Nc3ccc4[nH]ncc4c3)nc2N1C1CCCCC1 [compound 129, (7R)-8-cyclohexyl-5-[6-(dimethylamino)pyridin-3-yl]-2-(1H-indazol-5-ylamino)-7-methyl-7,8-dihydropteridin-6(5H)-one]
